Laboratory results published in patent US6599893B2, “Cephalosporin antibiotics and prodrugs thereof” (Essential Therapeutics, Inc., priority 2000, dated 2003).
Converted amounts (≈) assume the structure as drawn. Where two headings read alike, the source gives them in different places.

Tests used:
[1] = test system: Staphylococcus aureus ATCC 29213 (MSSA); experiment: Broth microdilution MIC, S. aureus ATCC 29213; type: cell-based; conditions: Staphylococcus aureus ATCC 29213 (MSSA); for MIC: read-out: MIC S. a. 29213
Experimental: (§1) Compounds were evaluated for antimicrobial activity against a panel of bacterial strains using a broth microdilution assay performed as recommended by the NCCLS (NCCLS (National Committee for Clinical Laboratory Standards). 1993. Methods for dilution antimicrobial susceptibility tests for bacteria that grow aerobically. NCCLS Document M7-A3, 1993. In: NCCLS Antimicrobial Susceptibility Testing, 3rd Ed.)
(§2) The minimum inhibitory concentration (MIC) is defined as the lowest concentration of a compound that prevents the growth of the bacteria.

[2] = test system: Enterococcus faecalis ATCC 29212; experiment: Broth microdilution MIC, E. faecalis ATCC 29212; type: cell-based; conditions: Enterococcus faecalis ATCC 29212; for MIC: ATCC29212, read-out: MIC E. f. 29212
Experimental: as §1, §2

[3] = test system: Staphylococcus aureus Smith (MSSA); experiment: Broth microdilution MIC, S. aureus Smith; type: cell-based; conditions: Staphylococcus aureus Smith (MSSA); for MIC: read-out: MIC S. a. Smith
Experimental: as §1, §2

[4] = test system: Staphylococcus aureus 76 (MRSA, β-lactamase producing); experiment: Broth microdilution MIC, S. aureus 76; type: cell-based; conditions: Staphylococcus aureus 76 (MRSA, β-lactamase producing); for MIC: read-out: MIC S. a. 76
Experimental: as §1, §2

S. aureus strain Smith = experiment: Experimental infection of mice, ED50; type: in vivo, Swiss-Webster mice; conditions: 50% efficacious dose, S. aureus Smith, mice challenged intraperitoneally, compound subcutaneously at 0 and 2 h, total dose, 72 h survival; for ED50: Staphylococcus aureus, read-out: ED50, mg/kg (95% C.I.)
Experimental: Staphylococcus aureus strain Smith (ATCC 13709, penicillin-susceptible) or strain 76 (methicillin-resistant) was cultured overnight at 37° C. in brain-heart infusion broth (BHIB). The following morning, a portion of the culture was transferred to fresh BHIB and incubated for an additional 4-5 hours at 37° C. The cells were harvested by centrifugation, washed twice with PBS, and adjusted to the desired inoculum amount. The cell suspension was mixed with an equal volume of sterile 14% hog-gastric mucin (Comber K. R.; Osborne C. D.; Sutherland R.: Comparative effects of amoxicillin and ampicillin in the treatment of experimental mouse infections. Antimicrobial Agents and Chemotherapy 7(2):179-185, 1975). The inoculum was kept in an ice bath until used (preferably in less than one hour).
Male Swiss-Webster mice were challenged intraperitoneally with 0.5 mL of a bacterial suspension of S. aureus strain Smith (LD50). Test compounds were administered subcutaneously in 0.1 mL volumes immediately after inoculation and 2 hours later. […] The total dose associated with 50% survival (ED50) was determined using the probit method (Pasiello, A. P., J. M. Essigmann, and G. N. Wogan.: Rapid and accurate determination of median lethal dose (LD50) and its error with a small computer. J Toxicol. Environ. Health. 3:797-809, 1977).

[5] = test system: Staphylococcus aureus COL (MRSA, non-β-lactamase producing); experiment: Broth microdilution MIC, S. aureus COL; type: cell-based; conditions: Staphylococcus aureus COL (MRSA, non-β-lactamase producing); for MIC: read-out: MIC S. a. COL
Experimental: as §1, §2

[6] = test system: Enterococcus faecium ATCC 35667; experiment: Broth microdilution MIC, E. faecium ATCC 35667; type: cell-based; conditions: Enterococcus faecium ATCC 35667; for MIC: ATCC35667, read-out: MIC E. f. 35667
Experimental: as §1, §2

[7] = Human serum binding by ultrafiltration; type: in vitro ADME
Experimental: Binding of several representative compounds of this invention in pooled human serum was determined using ultrafiltration. Compounds were incubated in serum for 10 minutes at 37° C. in a shaking water bath. Serum ultrafiltrate was accomplished by centrifugation (Amicon Centrifree) for 20 minutes at 25° C. Compound content in the ultrafiltrate was quantified by HPLC. An ultrafilrate obtained by following the same procedure with no added compound was used as a standard.

[8] = pooled human serum, ultrafiltration, 10 minutes at 37° C.

Structure (SMILES) | MIC [1] [µg/mL] | MIC [2] [µg/mL] | MIC [3] [µg/mL] | MIC [4] [µg/mL] | ED50 (S. aureus strain Smith) [mg/kg] | MIC [5] [µg/mL] | MIC [6] [µg/mL] | HSB, human serum binding [7, 8] [%] | MIC S. a. 29213 [1] [µg/mL] | MIC E. f. 29212 [2] [µg/mL] | MIC S. a. Smith [3] [µg/mL] | MIC S. a. 76 [4] [µg/mL] | ED50, mg/kg (95% C.I.) (S. aureus strain Smith) | MIC S. a. COL [5] [µg/mL] | MIC E. f. 35667 [6] [µg/mL] | HSB, human serum binding [7] [%]
Nc1nc(/C(=N/OC2CCCC2)C(=O)N[C@@H]2C(=O)N3C(C(=O)O)=C(Sc4ccnn4-c4ccccc4)CS[C@H]23)cs1 [Compound 13] | 0.5 (≈ 0.817 µM) | 2 (≈ 3.27 µM) | 0.5 (≈ 0.817 µM) | 4 (≈ 6.54 µM) | > 10 | 2 (≈ 3.27 µM) | 4 (≈ 6.54 µM) |  |  |  |  |  |  |  |  | 
CCC(CC)O/N=C(\C(=O)N[C@@H]1C(=O)N2C(C(=O)O)=C(Sc3ccnn3-c3ccccc3)CS[C@H]12)c1csc(N)n1 [Compound 17] | 0.5 (≈ 0.815 µM) | 2 (≈ 3.26 µM) |  | 4 (≈ 6.52 µM) | > 10 | 2 (≈ 3.26 µM) | 4 (≈ 6.52 µM) |  |  |  |  |  |  |  |  | 
Nc1nc(/C(=N/OCC2CC2)C(=O)N[C@@H]2C(=O)N3C(C(=O)O)=C(Sc4ccnn4-c4ccccc4)CS[C@H]23)cs1 [Compound 19] | 0.5 (≈ 0.837 µM) | 16 (≈ 26.8 µM) | 0.5 (≈ 0.837 µM) | 8 (≈ 13.4 µM) | > 10 | 4 (≈ 6.69 µM) | 16 (≈ 26.8 µM) |  |  |  |  |  |  |  |  | 
Nc1nc(/C(=N/O)C(=O)N[C@@H]2C(=O)N3C(C(=O)O)=C(Sc4ccncc4)CS[C@H]23)c(Cl)s1 [Compound 21] | 0.25 (≈ 0.487 µM) | 0.5 (≈ 0.975 µM) | 0.25 (≈ 0.487 µM) | 2 (≈ 3.9 µM) | 3.6 | 2 (≈ 3.9 µM) | 2 (≈ 3.9 µM) | 98 |  |  |  |  |  |  |  | 
Nc1nc(/C(=N/O)C(=O)N[C@@H]2C(=O)N3C(C(=O)O)=C(Sc4ccncc4CSc4ccncc4)CS[C@H]23)c(Cl)s1 [Compound 25] |  |  |  |  |  |  |  |  | 0.25 (≈ 0.393 µM) | 0.125 (≈ 0.196 µM) | 0.25 (≈ 0.393 µM) | 2 (≈ 3.14 µM) | >5 mg/kg | 1 (≈ 1.57 µM) | 0.25 (≈ 0.393 µM) | >99
Nc1nnc(SCc2cnccc2SC2=C(C(=O)O)N3C(=O)[C@@H](NC(=O)/C(=N\O)c4nc(N)sc4Cl)[C@H]3SC2)s1 [Compound 26] |  |  |  |  |  |  |  | >99 | 0.25 (≈ 0.38 µM) | 0.25 (≈ 0.38 µM) | 0.06 (≈ 0.0912 µM) | 2 (≈ 3.04 µM) | 0.38 (01-0.7) mg/kg | 1 (≈ 1.52 µM) | 0.5 (≈ 0.76 µM) | 
Nc1nc(/C(=N/O)C(=O)N[C@@H]2C(=O)N3C(C(=O)O)=C(Sc4ccncc4CSCCNC=O)CS[C@H]23)c(Cl)s1 [Compound 27] |  |  |  |  |  |  |  |  | 0.25 (≈ 0.397 µM) | 0.25 (≈ 0.397 µM) | 0.25 (≈ 0.397 µM) | 4 (≈ 6.35 µM) | 2.27 (1.0-5.5) mg/kg | 2 (≈ 3.17 µM) | 1 (≈ 1.59 µM) | 94
